The values that follow come from patent US8802723B2, “Metabolic syndrome-improving agent and medicine, supplement, functional food and food additive containing the same” (ARKRAY, Inc., priority 2005, dated 2014).

For assay [1], the target named is T1, human PPARγ (Homo sapiens, UniProt P37231).
T1 construct: expressed in transfected cells; host or cells: CV-1 cells (African green monkey kidney)
T1 sequence (P37231 204-505): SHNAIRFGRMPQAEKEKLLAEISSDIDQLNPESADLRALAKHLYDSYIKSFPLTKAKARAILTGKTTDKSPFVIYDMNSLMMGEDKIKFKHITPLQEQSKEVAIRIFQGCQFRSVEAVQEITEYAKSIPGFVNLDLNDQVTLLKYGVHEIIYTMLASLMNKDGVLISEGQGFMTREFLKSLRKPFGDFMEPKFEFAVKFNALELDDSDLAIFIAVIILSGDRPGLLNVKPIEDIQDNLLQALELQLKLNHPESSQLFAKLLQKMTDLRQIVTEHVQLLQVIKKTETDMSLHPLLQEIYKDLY
In words: PPARγ ligand activity, GAL4-hPPARγ luciferase reporter assay in CV-1 cells. As to conditions: for PPARγ ligand activity: 24 h, relative to non-treatment control (DMSO) = 100, average ± standard error. Format: cell-based. How it is done: CV-1 cells (cultured cells derived from kidneys of male African green monkeys) were implanted on 24-well culture plates so as to be […] and cultured at 37° C. in 5% CO2 for 24 hours. As a medium, DMEM (Dulbecco's Modified Eagle Medium; manufactured by GIBCO) containing 10% FBS (fetal bovine serum) and a 10 mg/mL penicillin streptomycin solution was used. Using the Lipofectamine system (trade name; manufactured by Invitrogen Corporation), pM-hPPARγ and p4× UASg-tk-luc were transfected. The above-noted pM-hPPARγ was a chimeric protein-expression plasmid binding GAL4 gene (amino acid sequence 1-147) and human PPARγ ligand-binding site gene (amino acid sequence 204-505), whereas the above-noted p4× UASg-tk-luc was a reporter plasmid containing four copies of a responsive element (UAS) of GAL 4 upstream of a luciferase gene. About 24 hours after the transfection, samples of aurapten at respective concentrations (0.1, 1.0, 10, 50 and 100 μM) were added to the above-described media, followed by 24 hour incubation. The above-noted samples were prepared by dissolving aurapten in dimethyl sulfoxide (DMSO). Instead of the aurapten, DMSO was added to non-treated control media. After the incubation, measurement was made using a Dual-Luciferase Reporter Gene Assay system (trade name; manufactured by Promega Corporation).
Similarly to the measurement group, as a control group, pM (a plasmid from which PPARγ ligand-binding site gene was removed) was used for measurement instead of pM-hPPARγ. For each sample, the ratio between average luminescence intensities of the measurement group and the control group (n=4) (measurement group/control group) was calculated, and an activity relative to the non-treatment control was determined as the PPARγ ligand activity of the sample.

Assay [2] concerns aP2 mRNA. In words: aP2 mRNA expression in differentiated 3T3-L1 adipocytes (Light Cycler). Format: cell-based. As to conditions: 3T3-L1, 7 days after differentiation induction, non-treatment control = 100, average ± standard error. How it is done:
Differentiation Induction Medium (0.25 μM DEX, 0.5 mM MIX, 10 μg/mL Insulin/10% FBS/DMEM)
55 mL of FBS (fetal bovine serum (manufactured by GIBCO)) was added to 500 mL of DMEM (manufactured by SIGMA) so as to prepare 10% FBS/DMEM. To this 10% FBS/DMEM, 138.75 μL of 1 mM DEX (dexamethasone)/DMSO (manufactured by Nacalai Tesque, Inc.) and 555 μL of 10 mg/mL insulin/PBS (manufactured by SIGMA) were added. Incidentally, the insulin/PBS was obtained by adding 1N HCl to PBS in advance so as to make the solution acidic enough to allow insulin dissolution and then dissolving insulin. […]
Next, culture preadipocytes 3T-L1 were thawed, inoculated in a 100 mm dish and cultured until 3T3-L 1 cells reached about 80% confluence. […] 7 days after the initiation of the differentiation induction, mRNA was extracted using Sepasol(R)—RNA I super (manufactured by Nacalai Tesque, Inc.), and the mRNA expression amounts of 36B4, aP2 and adiponectin, which were indicators of an early period of adipocyte differentiation, were measured using Light Cycler™. Also, the medium 7 days after the differentiation induction was taken in an amount of 1 mL from each well, and the amount of adiponectin in the medium supernatant was measured using a mouse/rat adiponectin ELISA kit (trade name) (manufactured by Otsuka Pharmaceutical Co., Ltd.). […]

Consider `CC(C)=CCC/C(C)=C/COc1ccc2ccc(=O)oc2c1` [Aurapten, aurapten], for which the “effect on PPARγ activity (in words)” value in assay [1] (0.1-100 μM, increased along with the concentration) is given as “improved the activity of PPARγ”. Besides, the PPARγ ligand activity in assay [1] (aurapten 0.1 μM) is 128 ± 8.5; in assay [1] (aurapten 1.0 μM), 113 ± 6.9; in assay [1] (aurapten 10 μM) it was 146 ± 17.0; in assay [1] (aurapten 50 μM) it was 245 ± 56.1; in assay [1] (aurapten 100 μM), 641 ± 84.2. The “aP2 mRNA expression amount (ratio to 36B4)” value in assay [2] (aurapten 1 μM) is 208.2 ± 23.4; in assay [2] (aurapten 5 μM), 202.7 ± 19.3.
